Consider one compound from patent publication US20250381165A1, “Method of Use for Benzofuran Compounds” (Tampa Bay Research Institute, Inc., priority 2024, published 2025).

≈ marks a conversion by molar mass, not a printed value.

The target in data set [1] is T1, H-2Kb/SIINFEKL complex on DC2.4 (Mus musculus, UniProt P01901).
T1 construct: DC2.4 are a C57Bl/6 lineage murine cell line and as such they express MHC class I H-2Kb and H-2Db; endogenous in cells; host or cells: DC2.4 (murine dendritic cell line, from Dr. Kenneth Rock)
T1 sequence (P01901 22-369): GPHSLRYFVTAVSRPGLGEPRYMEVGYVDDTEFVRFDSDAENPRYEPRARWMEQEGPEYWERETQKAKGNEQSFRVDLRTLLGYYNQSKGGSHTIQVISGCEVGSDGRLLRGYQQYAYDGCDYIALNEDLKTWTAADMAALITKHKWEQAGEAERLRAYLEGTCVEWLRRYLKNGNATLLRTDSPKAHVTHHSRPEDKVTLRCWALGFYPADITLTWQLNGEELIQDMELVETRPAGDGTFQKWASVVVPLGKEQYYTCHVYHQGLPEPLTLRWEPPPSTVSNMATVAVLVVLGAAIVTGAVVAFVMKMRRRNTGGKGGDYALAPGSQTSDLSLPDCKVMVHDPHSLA
T1 sequence (P01887 21-119 partner): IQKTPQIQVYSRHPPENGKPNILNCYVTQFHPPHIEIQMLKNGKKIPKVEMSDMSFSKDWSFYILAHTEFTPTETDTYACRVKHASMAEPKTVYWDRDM
Put plainly: BFA decay experiment (SIINFEKL off-rate) on DC2.4. The conditions noted are these: 24 h pre-treatment, 1 h 30 nM SIINFEKL
The data set is classed as cell-based, murine.

The test system of data set [2] is SIINFEKL specific CD8+ T cells. Description: Immunization with BzFβ/SIINFEKL treated DC2.4 cells. The data set is classed as in vivo, C57BL/6crl mice. The conditions noted are these: mice immunized sc with 1.2×10^6 DC2.4 treated with 50 μg/mL BzFβ then 1 μg/mL SIINFEKL; prime and boost. Here is the method:
DC2.4 cells that had been matured by an overnight treatment with 20 ng/mL murine IFNγ (He, et al., Interferon gamma stimulates cellular maturation of dendritic cell line DC2.4 leading to induction of efficient cytotoxic T cell responses and antitumor immunity. Cell Mol Immunol. 2007; 4(2):105-11) were treated with 30 μg/mL mitomycin C to block replication and were then pulsed for 1 h with 1 μg/mL SIINFEKL peptide (Group 2), or with 50 μg/mL BzFβ for 1 h and then with 1 μg/mL SIINFEKL peptide for 1 h (Group 3).
Female C57BL/6crl mice were separated into 3 groups with 6 mice per group. The mice in Group 1 served as the naïve, no treatment group, Group 2 treated with by subcutaneous injection of 1.2×10^6 DC2.4 cells primed with IFNγ, mitomycin C and SIINFEKL, and Group 3 treated by subcutaneous injection of 1.2×10^6 DC2.4 cells primed with BzFβ and SIINFEKL as outlined above. […] Fourteen days later, the number of MHC class I/SIINFEKL tetramer positive CD8+ cells in the peripheral blood and spleen were determined.
On day 21 (14 days after the last immunization) blood was collected from the retro-orbital plexus. […] The number of CD19 negative^−/CD8 positive/SIINFEKL tetramer positive cells was determined by flow cytometric analysis following collection of positive events detected in the lymphocyte gate. […]

For data set [3], the system named is murine splenocytes (B3Z activation). Put plainly: B3Z activation by murine splenocytes (OVA or SIINFEKL). The data set is classed as cell-based. Here is the method: Murine splenocytes were plated at a density of 2.5 or 5×10^4 cells/well (100 μL/well in 96 well plates) and cultured overnight in cRPMI. The cells were washed with DPBS and then treated for 1-24 h with the indicated concentrations of BzFβ or co-treated with the indicated concentrations of BzFβ and 0.5 mg/mL OVA, suspended in complete media. Cells treated with BzFβ only were pulsed with 0.5 nM SIINFEKL pulsed for 1 h. The cells were then co-cultured with equal number of B3Z cells at 37° C. for 19 h.

In data set [4] the target is T2, MHC class I/SIINFEKL complex on IMG cells (Mus musculus, UniProt P01901).
T2 construct: host or cells: IMG cell line
T2 sequence (P01901 22-369): as the sequence (P01901 22-369) above
T2 sequence (P01887 21-119 partner): as the sequence (P01887 21-119 partner) above
Description: SIINFEKL binding to IMG cells, flow cytometry with 25-D1.16 antibody. The conditions noted are these: 25 μg/mL BzFβ 0-4 h. It is filed as cell-based, murine. Here is the method: By using an MHC class I H-2K^b specific antibody, a relative comparison of the surface MHC class I was measured before and after BzFβ treatment of DC2.4 and IMG cells. These cells were treated with 25 μg/mL BzFβ for 0-4 h. Cells were centrifuged and washed using cold FACS buffer (DPBS with 5% FBS, 2 mM EDTA, 0.1% sodium azide). Cells were blocked with Fc block (bioLegend™; cat. no. 101320) for 10 min to 15 min to inhibit non-specific binding, followed by staining with fluorophore-conjugated antibodies; one set of cells was stained with the PE-labeled MHC/SIINFEKL specific antibody (clone 25-D1.16, Invitrogen™, Thermo Fisher Scientific Inc., Waltham, MA; cat. no. 12-5743-82), and the other set was stained with the PE-labeled MHC class I H-2Kb specific antibody (AF6-88.5.5.3,Invitrogen™, Thermo Fisher Scientific Inc., Waltham, MA; cat. no. 12-5958-82) […], for 30 min at 4° C. After washing, the cells were subjected to flow cytometric analysis with the Attune NxT Flow Cytometer (Invitrogen). Cells were gated based on live single-cell populations and positives were assessed using isotype controls and fluor-minus-one analysis when needed. Data were analyzed using the Attune NxT software or FlowJo versions 10.7 and 10.8.
A general note: A flow cytometer gives signals particle by particle.

Data set [5] in a line: Solubility in alkaline water. It is filed as physicochemical. The following applies: pH 10, aqueous buffer, read-out: limit to the solubility in alkaline water (converted). Here is the method:
Mice were gavaged with BzFβ at doses ranging from 25 mg/kg body to 100 mg/kg body weight, injected intravenously (iv) with 50 μg BzFβ or injected intramuscularly with BzFβ at 25 to 40 mg/kg body weight. For two weeks post-treatment, water intake and weight were monitored. […] The limit to the solubility of BzFβ in alkaline water is 4 mg, therefore no further doses were tested.

One may read the solubility as the dissolved amount per volume that the medium holds. On to `O=C(O)/C=C/c1ccc2occc2c1` [BzFβ, (2E)-3-(1-benzofuran-5-yl)prop-2-enoic acid], for which the “decay rate of SIINFEKL / stability of H-2Kb/SIINFEKL complex” value in data set [1] is “did not affect the decay rate of SIINFEKL”. The “SIINFEKL-specific CD8+ T cell response” value in data set [2] is given as “enhanced SIINFEKL-specific CD8+ T cell response”. In addition, the “ability of splenocytes to activate B3Z, OVA” value in data set [3] (co-treatment 24 h, 0.5 mg/mL OVA) is reported as “enhanced their ability to activate B3Z”. The “ability of splenocytes to activate B3Z, SIINFEKL” value in data set [3] (pre-treatment 24 h, then 0.5 nM SIINFEKL 1 h) was “also enhanced their ability to activate the B3Z”. Moreover, in data set [3] (splenocytes, 0.5 mg/mL OVA, p<0.0001), the doses with significant enhancement of B3Z activation, OVA was above 6.25 µg/mL. Besides, the “doses with significant enhancement of B3Z activation, SIINFEKL” value in data set [3] (splenocytes, 24 h, 0.5 nM SIINFEKL 1 h, p<0.0001) is above 12.5 µg/mL. Further, in data set [4], the “binding of SIINFEKL to surface MHC class I” value is “able to enhance the binding of SIINFEKL”. For the same compound, the solubility in data set [5] is 20 mg/mL (≈ 106 mM).
